Laboratory results reported in patent US9968614B2, “Aprepitant injectable formulations” (InnoPharma, Inc., priority 2012, dated 2018).
Read-outs that look alike come from different tables or passages of the source.

Legend:
[1] = cited from earlier work
[2] = Solubility of aprepitant in polysorbate 80 solutions after pre-solubilisation in DMAC; type: physicochemical
Method: The inventors also tested whether solubility of aprepitant in aqueous polysorbate 80 solutions could be improved when aprepitant was pre-solubilized in a secondary solvent (e.g., dimethylacetamide (DMAC)). […] Remarkably, when the inventors directly added 200 μL of DMAC solubilized in 10 mL of water to 100 mg aprepitant (i.e., without surfactant), aprepitant was not detected in the solution phase.

[3] = cited from earlier work; remark: listed apart in the source
[4] = Solubility of aprepitant in water or ethanol/water with polysorbate 80; type: physicochemical
Excerpt: The inventors further tested whether co-solvents (i.e., solvents in addition to water) in combination with surfactants would improve solubility of aprepitant. […] In most preferred aspects, a relatively low concentration of nonionic surfactant was chosen in a co-solvent mixture of ethanol and water, and Tables 3-5 below exemplarily illustrate the results of such combination.
More specifically, Table 3 depicts solubility results of aprepitant in water without ethanol at surfactant concentrations noted in the table.
Likewise, Table 4 depicts solubility results of aprepitant in an ethanol/water mixture of (30 vol % EtOH, 70 vol % H2O) at surfactant concentrations noted in the table, and Table 5 depicts solubility results of aprepitant in an ethanol/water mixture of (55 volume % EtOH, 45 vol % H2O) at surfactant concentrations noted in the table.

[5] = Solubilization of aprepitant by pH (pKa, pH-dependent solubility); type: physicochemical
Method: Indeed, to be soluble in aqueous solution, a pH of greater than 11.7 is required. However, a formulation with such a high pH is not suitable for injection. Moreover, the instant such a formulation is diluted in blood, the pH will change to about pH 7.4, which will lead to rapid precipitation of the drug. […] Similar problems were also encountered where aprepitant is dissolved in a water/ethanol solvent mixture where ethanol is at about 50 volume 9 concentration. Here, dilution that would occur at the injection site would lead to precipitation of the drug and so might lead to chemo-embolism.

[6] = Solubility of aprepitant in aqueous surfactant solutions; type: physicochemical; details: water alone as solvent
Excerpt: However, in a typical injectable formulation at Polysorbate 80 concentration of 10% w/v, it would require 7 grams of surfactant, and at Polysorbate 80 concentration of 30% w/v, it would require 9 grams of surfactant to solubilize the aprepitant. Unfortunately, such high quantities of surfactant are entirely unsuitable for injectable formulations (e.g., due to hypersensitivity issues related to polysorbate, foam formation during mixing, etc.). Table 2 below illustrates typical solubility data for aprepitant using water alone as solvent.

[7] = Solubility of aprepitant in ethanol with the balance water; type: physicochemical
Excerpt: Thus, while the above approaches using complexing agents and/or co-solvents led to a soluble form of aprepitant in at least some instances, concentration of aprepitant is relatively low, and aprepitant tends to precipitate out upon further dilution. As is already known in the art, solubility of aprepitant increases exponentially with increasing concentration of ethanol as shown in Table 1 in the background section. Moreover, maximum allowed concentrations of ethanol in a drug formulation are typically at or below 49 volume %. […] Moreover, and as already noted above, an ethanol/water solvent system is not suitable for injection as aprepitant will rapidly precipitate upon dilution at the injection site.

[8] = given orally, nanoparticulate composition; cited from earlier work
[9] = prevention and control of acute and delayed chemotherapy induced nausea and vomiting; cited from earlier work
[10] = IV infusion; cited from earlier work

C[C@@H](O[C@H]1OCCN(Cc2nc(=O)[nH][nH]2)[C@H]1c1ccc(F)cc1)c1cc(C(F)(F)F)cc(C(F)(F)F)c1 [Aprepitant, 5-([(2R,3S)-2((R)-1-[3,5-bis(trifluoromethyl)phenyl]ethoxy)-3-(4-fluoro-phenyl)morpholino]methyl)-1H-1,2,4-triazol-3(2H)-one]
solubility (descriptive) ([1]; acetonitrile): slightly soluble
solubility (descriptive) ([1]; ethanol): sparingly soluble
solubility (descriptive) ([1]; isopropyl acetate): sparingly soluble
solubility (descriptive) ([1]; oil (as is well established)): substantially insoluble
solubility (descriptive) ([1]; water (as is well established)): substantially insoluble
solubility (descriptive) ([1]; water): practically insoluble
aprepitant in the solution phase ([2]; 200 μL DMAC in 10 mL water added directly to 100 mg aprepitant, without surfactant): not detected
Aprepitant Conc. ([2]; Directly Added, Polysorbate 80 10 % w/v): 1.85 mg/mL
Aprepitant Conc. ([2]; Directly Added, Polysorbate 80 30 % w/v): 4.42 mg/mL
Aprepitant Conc. ([2]; Prior Solubilization in DMAC, Polysorbate 80 5 % w/v): 0.85 mg/mL
Aprepitant Conc. ([2]; Prior Solubilization in DMAC, Polysorbate 80 10 % w/v): 2.03 mg/mL
Aprepitant Conc. ([2]; Prior Solubilization in DMAC, Polysorbate 80 15 % w/v): 3.13 mg/mL
Aprepitant Conc. ([2]; Prior Solubilization in DMAC, Polysorbate 80 20 % w/v): 4.35 mg/mL
Aprepitant Conc. ([2]; Prior Solubilization in DMAC, Polysorbate 80 30 % w/v): 4.80 mg/mL
pka [3]: 9.7
Aprepitant Conc. ([4]; 30 vol % EtOH, 70 vol % H2O, Polysorbate 80 11 mg/mL): 0.560 mg/mL
Aprepitant Conc. ([4]; 30 vol % EtOH, 70 vol % H2O, Polysorbate 80 44 mg/mL): 0.793 mg/mL
Aprepitant Conc. ([4]; 30 vol % EtOH, 70 vol % H2O, no Polysorbate 80): 0.0232 mg/mL
Aprepitant Conc. ([4]; 55 volume % EtOH, 45 vol % H2O, Polysorbate 80 11 mg/mL): 1.936 mg/mL
Aprepitant Conc. ([4]; 55 volume % EtOH, 45 vol % H2O, Polysorbate 80 22 mg/mL): 3.309 mg/mL
Aprepitant Conc. ([4]; 55 volume % EtOH, 45 vol % H2O, Polysorbate 80 44 mg/mL): 4.182 mg/mL
Aprepitant Conc. ([4]; 55 volume % EtOH, 45 vol % H2O, no Polysorbate 80): 3.3 mg/mL
Aprepitant Conc. ([4]; water without ethanol, Polysorbate 80 11 mg/mL): 0.179 mg/mL
Aprepitant Conc. ([4]; water without ethanol, Polysorbate 80 22 mg/mL): 0.308 mg/mL
Aprepitant Conc. ([4]; water without ethanol, Polysorbate 80 44 mg/mL): 0.505 mg/mL
pH required to be soluble in aqueous solution ([5]; aqueous solution): greater than 11.7
solubility in concentrated formic acid ([5]; concentrated formic acid): soluble
behaviour on dilution of formic acid solution ([5]; twofold dilution with aqueous medium): precipitated almost immediately
Aprepitant Conc. ([6]; Cremophor RH 40 10 % w/v): 1.24 mg/mL
Aprepitant Conc. ([6]; Cremophor RH 40 30 % w/v): 3.51 mg/mL
Aprepitant Conc. ([6]; Cremophor RH 60 10 % w/v): 1.24 mg/mL
Aprepitant Conc. ([6]; Poloxamer 188 30 % w/v): 1.24 mg/mL
Aprepitant Conc. ([6]; Polysorbate 80 10 % w/v): 1.85 mg/mL
Aprepitant Conc. ([6]; Polysorbate 80 30 % w/v): 4.42 mg/mL
Aprepitant Conc. ([7]; Ethanol Conc. (v/v) 10, balance water): 0.0001 mg/mL
Aprepitant Conc. ([7]; Ethanol Conc. (v/v) 30, balance water): 0.0232 mg/mL
Aprepitant Conc. ([7]; Ethanol Conc. (v/v) 50, balance water): 1.76 mg/mL
Aprepitant Conc. ([7]; Ethanol Conc. (v/v) 55, balance water): 3.30 mg/mL
Aprepitant Conc. ([7]; Ethanol Conc. (v/v) 60, balance water): 5.1 mg/mL
Aprepitant Conc. ([7]; Ethanol Conc. (v/v) 70, balance water): 12.8 mg/mL
Aprepitant Conc. ([7]; Ethanol Conc. (v/v) 90, balance water): 21.8 mg/mL
bioavailability [8]: 60-65%

C[C@@H](O[C@H]1OCCN(Cc2nc(O)n(P(=O)(O)O)n2)[C@H]1c1ccc(F)cc1)c1cc(C(F)(F)F)cc(C(F)(F)F)c1 [Fosaprepitant]
comparison to aprepitant [9]: non-inferiority and bioequivalency
time for conversion to aprepitant [10]: less than 30 minutes
